Reference: patent publication US20130231292A1, “Synergistic anti-proliferation activity of TAS-108 with mTOR inhibitors against cancer cells” (priority 2012, published 2013)

Experiments:
T-47D = experiment: Combination screen of TAS-108 with a second compound, CellTiter-Glo; conditions: in combination with TAS-108
Protocol: (§1) Cells were treated with compounds alone or in combination for three days and CellTiter-Glo® Luminescent Cell Viability Assay (Promega Corp.) was used as the endpoint to measure cell viability.
(§2) Cells were cultured in RPMI with 10% fetal bovine serum and used between passage 2 and passage 20.
(§3) Other compounds used were purchased from commercial sources (Sigma, AK Scientific). 40 mM Compound stocks in 100% DMSO were made. Master plates were made with Janus (PerkinElmer), then further diluted and added to the cell plates with Matrix Platemate (Thermo) on Day 0.
(§4) CellTiter-Glo® Luminescent Cell Viability Assay (Promega Corp.) was used to measure ATP as an indicator of viable cells on Day 3 using Envision (PerkinElmer) and back up plate reader Analyst HT (MDS) and Gen5 (BioTek).
(§5) Relative Luminescent Units (RLU) were plotted against corresponding drug concentrations and fitted with a standard four parameter sigmoidal curve with custom coded R program. Percentage growth inhibition is calculated as: [(Ti−Tz)/(C−Tz)]×100 for concentrations for which Ti≧Tz and [(Ti−Tz)/Tz]×100 for concentrations for which Ti<Tz.
(§6) Twenty-five doses were tested for each pair of combinations.
(§7) N: no synergistic effect; Y: synergistic effect; y: weak synergistic effect.

HS 578T = experiment: as above; conditions: in combination with TAS-108
Protocol: as §1, §2, §3, §4, §5, §6, §7

[1] = system: human mammary carcinoma cell lines; experiment: Combination screen of TAS-108 with a second compound, all six breast lines; conditions: number of the six breast cell lines with synergy, in combination with TAS-108
Protocol: as §1, §2, §3, §4, §5, §6, §7

BT-549 = experiment: Combination screen of TAS-108 with a second compound, CellTiter-Glo; type: cell-based, human; conditions: BT-549, in combination with TAS-108
MDA-MB-231 = experiment: as above; conditions: MDA-MB-231, in combination with TAS-108
Protocol: as §1, §2, §3, §4, §5, §6, §7

MDA-MB-468 = experiment: as above; conditions: MDA-MB-468, in combination with TAS-108
Protocol: as §1, §2, §3, §4, §5, §6, §7

MCF7 = experiment: as above; conditions: MCF7, in combination with TAS-108
Protocol: as §1, §2, §3, §4, §5, §6, §7

## CNC(=O)c1cc(Oc2ccc(NC(=O)Nc3ccc(Cl)c(C(F)(F)F)c3)cc2)ccn1 [Sorafenib]
T-47D
  Synergistic effect of TAS 108 paired with compound: N
HS 578T
  Synergistic effect of TAS 108 paired with compound: N
[1]
  Synergy #: 0
BT-549
  Synergistic effect of TAS 108 paired with compound: N
MDA-MB-231
  Synergistic effect of TAS 108 paired with compound: N
MDA-MB-468
  Synergistic effect of TAS 108 paired with compound: N
MCF7
  Synergistic effect of TAS 108 paired with compound: N
